Source: paper PMC7070709, “Design, Synthesis, and In Vitro Evaluation of Hydroxybenzimidazole-Donepezil Analogues as Multitarget-Directed Ligands for the Treatment of Alzheimer’s Disease” (Molecules, 2020)
Like-named read-outs stand apart in the source and are kept apart here.

Experiments:
Aβ1–42 = Aβ1–42 (Homo sapiens, UniProt P05067); assay: Inhibition of self-mediated Aβ1–42 aggregation (thioflavin T fluorescence); type: biochemical; settings: Aβ1–42 40 μM, 24 h, 37 °C, read-out: Aβ1–42 Aggregation Inhibition, Self-Induced; for inhibition at 40 µM: inhibitor 40 µM
Sequence of Aβ1–42 (P05067 672-713): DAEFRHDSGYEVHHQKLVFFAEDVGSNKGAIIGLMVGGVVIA
Description: (§1) The anti-amyloidogenic capacity of the compounds was also evaluated in vitro, in the absence and presence of Cu(II), based on the measurement of the fluorescence emission of Thioflavin T (ThT), a stain known by its Aβ fibril binding capacity. This binding interaction can be analyzed by fluorimetry, since the presence of ThT-fibrils increases the absorbance and the emission of the ThT dye, and it also induces red shifts on the absorbance (from 385 to 446 nm) and emission peaks (from 445 to 485 nm). All the measurements were performed after incubation (24 h, 37 °C) of the self-mediated and Cu^2+-induced Aβ aggregates in the presence/absence of the compounds under evaluation.
(§2) Herein, due to solubility problems of some compounds in the phosphate buffer (0.215 M, pH 8.0) of the working medium, the assays were carried out in the presence of 40 μM concentration of inhibitor and 20 μM in the case of compound 4, instead of 80 μM as previously reported. […] The activity dependence on ligand structural features may be mainly explained by the different ability for intercalation into the fibrils, as already assumed for other inhibitors. […] The data obtained for compounds 6 and 7 indicate that the presence of R1 = F, -NO2 substituents in the BIM have some small positive effect on the inhibition of Aβ aggregation.
(§3) The Aβ peptide was treated with 1,1,1,3,3,3-hexafluoropropan-2-ol (HFIP) and dissolved in a CH3CN/Na2CO3 (300 μM)/NaOH (250 μM) (48.3:48.3:4.3, v/v/v) mixture in order to have a stable stock solution, avoiding self-aggregation of Aβ1–42. Then, the prepared 500 μM solution was diluted at 40 μM in phosphate buffer (0.215 M, pH 8.0).
(§4) The solutions of the tested compounds were prepared in MeOH (1 mg/mL), being further diluted in phosphate buffer to a concentration of 480 μM. For copper-induced aggregation studies, a solution of CuCl2 240 μM was prepared from a stock standard solution (0.015 M). To perform the assays for the Aβ1–42 aggregation inhibition, a reported method, based on the fluorescence emission of thioflavin T (ThT), was followed. Aβ1–42 (40 μM) was incubated at 37 °C, for 24 h with or without Cu(II) (40 μM) in a phosphate buffer in presence or absence of the single ligand (40 μM and 20 μM for compound 4). Then, the samples were added to a 96-well plate with […] of 5 μM ThT in 50 mM glycine-NaOH (pH 8.5) buffer. Blank samples were prepared without the peptide for each concentration. The ThT fluorescence was measured at 446 nm (excitation) and 485 nm (emission). The inhibition percentage of aggregation was calculated by Equation (2), in which IFi and IF0 corresponded to the fluorescence intensities, in the presence and in the absence of the tested compound, subtracted of the fluorescence intensities due to the respective blanks.
(§5) The reported values were obtained as the mean ± SEM of duplicate of three different experiments.

[1] = target: T1, AChE (type VI-S, from electric eel) (Electrophorus electricus, UniProt O42275); assay: AChE inhibition, adaptation of Ellman's method; type: biochemical; settings: means of three independent experiments ± SD, read-out: TcAChE Inhibition IC50
T1 construct: purchased type VI-S
T1 sequence (O42275 24-633): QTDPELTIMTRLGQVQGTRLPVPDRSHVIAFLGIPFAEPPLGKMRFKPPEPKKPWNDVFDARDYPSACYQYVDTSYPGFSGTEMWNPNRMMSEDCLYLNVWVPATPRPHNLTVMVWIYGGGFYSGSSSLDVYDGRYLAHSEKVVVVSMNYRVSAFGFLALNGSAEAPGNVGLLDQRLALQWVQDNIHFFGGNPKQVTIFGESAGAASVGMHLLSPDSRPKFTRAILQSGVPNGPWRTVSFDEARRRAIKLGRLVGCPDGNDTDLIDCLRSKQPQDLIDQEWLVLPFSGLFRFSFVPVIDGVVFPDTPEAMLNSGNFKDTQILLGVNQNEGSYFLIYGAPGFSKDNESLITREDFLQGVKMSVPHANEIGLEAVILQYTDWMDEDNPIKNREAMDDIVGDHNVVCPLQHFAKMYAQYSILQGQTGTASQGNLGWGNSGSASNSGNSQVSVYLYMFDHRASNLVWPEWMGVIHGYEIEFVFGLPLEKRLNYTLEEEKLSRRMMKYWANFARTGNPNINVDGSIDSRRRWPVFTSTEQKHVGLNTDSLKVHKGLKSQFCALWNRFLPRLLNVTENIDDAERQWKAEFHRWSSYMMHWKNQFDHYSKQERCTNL
Description: The inhibition of AChE by the DNP-BIM hybrids herein studied was assayed by using a variation of Ellman´s test and the IC50 values obtained are included in Table 2. […]. An adaptation of the Ellman´s method, previously described, was used to measure the acetylcholinesterase inhibitory activity. The assay solution contained 374 µL of 4-(2-hydroxyethyl)-1-piperazineethanesulfonic acid (HEPES) buffer (50 mM, pH 8.0), 476 µL of 5,5’-dithiobis-(2-nitrobenzoic acid) (DTNB, 3 mM), a variable volume (10–50 µL) of the stock solution of each compound in methanol (1 mg/mL), 25 µL of AChE (type VI-S, from electric eel) stock solution, and the necessary amount of methanol to obtain 0.925 mL of sample mixture in a 1 mL cuvette. The samples were incubated for 15 min and then 75 µL of acetylthiocholine iodide (AChI) solution (16 mM) was added. The reaction was monitored for 5 min at 405 nm. Assays were run with a blank containing all the components except AChE, which was replaced by HEPES buffer. The rates of the reaction were calculated as well as the enzyme activity. A control reaction was carried out using methanol as a sample solution and it was considered as 100% activity.
The inhibition curves were obtained by plotting the percentage of enzymatic inhibition versus inhibitor concentration and a calibration curve was got from which the linear regression parameters were obtained.

Aβ1–42 with Cu(II) = Aβ1–42 with Cu(II) (Homo sapiens, UniProt P05067); assay: Inhibition of Cu-induced Aβ1–42 aggregation (thioflavin T fluorescence); type: biochemical; settings: copper 40 µM, Aβ1–42 40 μM, 24 h, 37 °C; for inhibition at 40 µM: inhibitor 40 µM
Sequence of Aβ1–42 with Cu(II) (P05067 672-713): as the sequence (P05067 672-713) above
Description: as §1, §2, §3, §4, §5

[2] = cited from earlier work
[3] = Zn(II) chelation by potentiometry; type: physicochemical; settings: for pH at which metal complexation starts, Zn(II): formation of MHL species, CL = 6.7 × 10^−4 M, 1:2 M(II)/L; for pZn (pM = −log[M]): pH 7.4, CL/CM = 10, CM = 10^−6 M
Source text: (§6) The metal chelating ability of hybrids 7 and 12, due to the BIM bidentate unity with (N,O) coordination mode, was studied by potentiometry. Figure 3A,B show a change in the deprotonation profile of the ligand titration curves due to the presence of the metal ions. In fact, the curves for the Cu(II)/L systems lie well below that of the ligand, while for the Zn(II)/L systems stay under for a > −1 (compound 7) or a > 0 (compound 12), thus supporting the formation of 1:1 and 1:2 M/L ratio complexes with the deprotonated and mono-protonated forms of the ligand and with relative metal dependent stability order (Cu > Zn). Table 1 contains the equilibrium models obtained from the fitting analysis of the potentiometric curves by program Hyperquad. In these equilibrium models, which the coordination core of the compounds integrates the bidentate (N,O) BIM moiety, MHL and MH2L2 correspond to species with the ligand containing one protonated nitrogen atom at the piperazine moiety, ML and ML2 correspond to complexes involving the completely deprotonated form of the ligand while MH-1L2 are mixed ligand-hydroxo metal complexes.
(§7) Solutions: the aqueous copper (CuCl2, 0.015 M) and zinc (ZnCl2, 0.0156 M) stock solutions for potentiometric equilibrium studies were prepared from 1000 ppm standards (Titrisol) and their metal content was evaluated by atomic absorption. The titrant solution (0.1 M KOH) was obtained from a carbonate-free commercial concentrate (Titrisol) and standardized by potentiometric titration with potassium hydrogen phthalate. The titrant solution was discarded whenever the percentage of carbonate (Gran’s method) was about 0.5% of the total amount of base.
(§8) Measurements: compounds 7 and 12 were titrated in 50% (w/w) DMSO/H2O medium, at T = 25.0 ± 0.1 °C and ionic strength (I) 0.1 M KCl, using 0.1 M KOH as titrant. Both glass and Ag/AgCl reference electrodes were previously conditioned in DMSO/H2O mixtures with increasing amounts of DMSO and the response of the glass electrode was controlled by strong acid–strong base (HCl/KOH) calibrations with the determination of the Nernst parameters by Gran’s method. […] All titrations were performed in duplicate and under the stated experimental conditions the pKw value (13.6) was determined and subsequently used in the computations. The stepwise protonation constant of the ligand, Ki = [HiL]/([Hi–1L][H]), and the overall metal–complex stability constants, βMmHhLl = [MmHhLl]/([M]^m[H]^h[L]^l), were calculated by fitting the potentiometric titration data with Hyperquad 2008 [26]. The metal hydrolysis constants were determined under the defined experimental conditions (I = 0.1 M KCl, 50% w/w DMSO/H2O, T = 25.0 ± 0.1 °C) and the following values of stability constants were included in the fitting of experimental data towards the equilibrium models related to the Cu^2+/L and Zn^2+/L systems: log βCu2H−2 = −9.99; log βZnH−2 = −14.79, log βZnH−3 = −23.48. Species distribution curves were plotted with the Hyss program.

[4] = Cu(II) chelation by potentiometry; type: physicochemical; settings: for pH at which metal complexation starts, Cu(II): formation of MHL species, CL = 6.7 × 10^−4 M, 1:2 M(II)/L; for pCu (pM = −log[M]): pH 7.4, CL/CM = 10, CM = 10^−6 M; for Kd: pH 7.4, read-out: conditional dissociation constant (K´d) for the copper complex
Source text: as §6, §7, §8

[5] = global formation constant, 50% w/w DMSO/water, I = 0.1 M KCl, 25.0 °C

O=C(NCC1CCCN(Cc2ccccc2)C1)c1ccc2nc(-c3ccccc3O)[nH]c2c1 (stereo not drawn) [Compound 3, N-((1-Benzylpiperidin-3-yl)methyl)-2-(2-hydroxyphenyl)-1H-benzo[d]imidazole-6-carboxamide]
inhibition at 40 µM (Aβ1–42): 71.4% | IC50 [1]: 5 ± 0.5 µM | inhibition at 40 µM (Aβ1–42 with Cu(II)): 81.8%

O=C(NCC1CCCCN1Cc1ccccc1)c1ccc2nc(-c3ccccc3O)[nH]c2c1 (stereo not drawn) [Compound 4, N-((1-Benzylpiperidin-2-yl)methyl)-2-(2-hydroxyphenyl)-1H-benzo[d]imidazole-6-carboxamide]
inhibition at 20 µM (Aβ1–42; inhibitor 20 µM): 47.6% | IC50 [1]: 14 ± 1 µM | inhibition at 20 µM (Aβ1–42 with Cu(II); inhibitor 20 µM): 55.9%

c1ccncc1 [pyridine]
log K (protonation constant) ([2]; in water): 5.24

c1c[nH]cn1 [imidazole]
log K (protonation constant) ([2]; standard group): 6.95

O=C(NCC1CCN(Cc2ccccc2)CC1)c1ccc2[nH]c(-c3cc(F)ccc3O)nc2c1 [Compound 6, N-((1-Benzylpiperidin-4-yl)methyl)-2-(2-hydroxy-5-fluorophenyl)-1H-benzo[d]imidazole-5-carboxamide]
inhibition at 40 µM (Aβ1–42): 51.2% | IC50 [1]: 1.67 ± 0.05 µM | inhibition at 40 µM (Aβ1–42 with Cu(II)): 61%

Oc1ccccc1 [phenol]
log K (protonation constant) ([2]; standard group): 9.98

O=C(NCCN1CCN(Cc2ccccc2)CC1)c1ccc2[nH]c(-c3cc([N+](=O)[O-])ccc3O)nc2c1 [Compound 7, N-(2-(4-Benzylpiperazin-1-yl)ethyl)-2-(2-hydroxy-5-nitrophenyl)-1H-benzo[d]imidazole-5-carboxamide]
inhibition at 40 µM (Aβ1–42): 57.6% | pH at which metal complexation starts, Zn(II) [3]: 3.5–4 | log βZnmHhLl (101), ZnL [3, 5]: 4.98(8) | log βZnmHhLl (102), ZnL2 [3, 5]: 10.22(8) | log βZnmHhLl (111), ZnHL [3, 5]: 10.40(8) | log βZnmHhLl (122), ZnH2L2 [3, 5]: 21.92(7) | pZn (pM = −log[M]) [3]: 6.5 | IC50 [1]: 21 ± 3 µM | pH at which metal complexation starts, Cu(II) [4]: around 2 | log βCumHhLl (1–12), CuH-1L2 [4, 5]: 7.30(9) | log βCumHhLl (102), CuL2 [4, 5]: 15.27(8) | log βCumHhLl (111), CuHL [4, 5]: 14.23(5) | log βCumHhLl (122), CuH2L2 [4, 5]: 26.90(7) | pCu (pM = −log[M]) [4]: 10.9 | Kd [4]: 0.08 µM | inhibition at 40 µM (Aβ1–42 with Cu(II)): 71.4%

O=C(NCCN1CCN(Cc2ccccc2[N+](=O)[O-])CC1)c1ccc2nc(-c3ccccc3O)[nH]c2c1 [Compound 11, 2-(2-Hydroxyphenyl)-N-(2-(4-(2-nitrobenzyl)piperazin-1-yl)ethyl)-1H-benzo[d]imidazole-6-carboxamide]
inhibition at 40 µM (Aβ1–42): 22.7% | IC50 [1]: 20 ± 1 µM | inhibition at 40 µM (Aβ1–42 with Cu(II)): 43.5%

O=C(NCCN1CCN(Cc2ccccn2)CC1)c1ccc2nc(-c3ccccc3O)[nH]c2c1 [Compound 12, 2-(2-Hydroxyphenyl)-N-(2-(4-(pyridin-2-ylmethyl)piperazin-1-yl)ethyl)-1H-benzo[d]imidazole-6-carboxamide]
inhibition at 40 µM (Aβ1–42): 30.1% | pH at which metal complexation starts, Zn(II) [3]: 3.5–4 | log βZnmHhLl (1–12), ZnH-1L2 [3, 5]: 2.07(7) | log βZnmHhLl (101), ZnL [3, 5]: 6.26(5) | log βZnmHhLl (102), ZnL2 [3, 5]: 10.54(5) | log βZnmHhLl (111), ZnHL [3, 5]: 12.58(4) | pZn (pM = −log[M]) [3]: 6.3 | IC50 [1]: > 100 µM | pH at which metal complexation starts, Cu(II) [4]: around 2 | log βCumHhLl (1–12), CuH-1L2 [4, 5]: 7.88(7) | log βCumHhLl (101), CuL [4, 5]: 11.18(5) | log βCumHhLl (102), CuL2 [4, 5]: 17.14(7) | log βCumHhLl (111), CuHL [4, 5]: 16.26(3) | pCu (pM = −log[M]) [4]: 10.4 | Kd [4]: 0.000365 µM | inhibition at 40 µM (Aβ1–42 with Cu(II)): 44.4%

O=C(NCCN1CCN(Cc2ccccc2)CC1)c1ccc2[nH]c(-c3cc(F)ccc3O)nc2c1 [Compound 8, N-(2-(4-Benzylpiperazin-1-yl)ethyl)-2-(2-hydroxy-5-fluorophenyl)-1H-benzo[d]imidazole-5-carboxamide]
inhibition at 40 µM (Aβ1–42): 50.6% | IC50 [1]: 4.3 ± 0.3 µM | inhibition at 40 µM (Aβ1–42 with Cu(II)): 55.2%

O=[N+]([O-])c1ccc(O)cc1 [4-nitrophenol]
log K (protonation constant) ([2]; standard group): 7.15
